According to US9271991B2, “Trimegestone (TMG) for treatment of preterm birth” (Dignity Health, priority 2010, dated 2016):
Values joined by “and” are separate entries in the source; they are usually repeats but may differ in a detail not shown here. Equal values may be shown once. “Also recorded” adds a separate entry of the source.

Tests used:
[1] = system: rat pups of treated pregnant rats; assay: Sex of pups / fetuses of TMG-treated pregnant rats; assay type: in vivo
Method: To determine the effects of TMG on progeny sex ratios, pregnant rats (N=9 per group) were treated daily beginning on day 13 of gestation with TMG (in benzyl benzoate+castor oil, vehicle) or with vehicle only. […] Pups were then placed with surrogate mother also on day 22 of gestation whose pups were sacrificed.
As described, the sex of the pups was evaluated 21 days post-partum by examining external genitalia as well as distance between rectum and genitalia.

[2] = system: pregnant guinea pigs (preterm delivery); assay: PGE2-induced preterm delivery in pregnant guinea pigs; assay type: in vivo, Hartley guinea pigs; details: sacrifice day 48
Excerpt: Pregnant guinea pigs, another model of pregnancy are also utilized as they more closely resemble the endocrine control of human pregnancy with progesterone levels in pregnancy maintained by the placenta as opposed to the ovaries, which is observed in pregnant rats.
Pregnant Hartley guinea pigs arrived at our facilities at 31-35 days gestation and housed in pairs, with free access to food and water and also maintained on a constant 12-hour light-dark cycle. The animals were euthanized with a combination of xylazine (Gemini; Burns Veterinary Supply Inc, Rockville Center, N.Y.) and ketamine HCL (Ketaset; Fort Dodge Laboratories Inc, Fort Dodge, Iowa). All procedures were approved by the Animal Care and Use Committee of the St. Joseph's Hospital and Medical Center in Phoenix, Ariz.
Pregnant guinea pigs (N=4-6 per group) were allocated into 4 groups (Vehicle (v) only, TMG only, PGE2 only, PGE2+TMG). PGE2 administration (3 mg/day s.c, v=saline) began daily on day 46 to day 47 of gestation. TMG administration (4 mg/day s.c v=BB:CO) began daily on day 44 until day 47 of gestation. All guinea pigs were sacrificed on day 48.

[3] = system: mineralocorticoid receptors (MR); details: cited from earlier work
[4] = molecular target: T1, glucocorticoid receptor (Homo sapiens, UniProt P04150); details: cited from earlier work
T1 sequence (P04150 1-777): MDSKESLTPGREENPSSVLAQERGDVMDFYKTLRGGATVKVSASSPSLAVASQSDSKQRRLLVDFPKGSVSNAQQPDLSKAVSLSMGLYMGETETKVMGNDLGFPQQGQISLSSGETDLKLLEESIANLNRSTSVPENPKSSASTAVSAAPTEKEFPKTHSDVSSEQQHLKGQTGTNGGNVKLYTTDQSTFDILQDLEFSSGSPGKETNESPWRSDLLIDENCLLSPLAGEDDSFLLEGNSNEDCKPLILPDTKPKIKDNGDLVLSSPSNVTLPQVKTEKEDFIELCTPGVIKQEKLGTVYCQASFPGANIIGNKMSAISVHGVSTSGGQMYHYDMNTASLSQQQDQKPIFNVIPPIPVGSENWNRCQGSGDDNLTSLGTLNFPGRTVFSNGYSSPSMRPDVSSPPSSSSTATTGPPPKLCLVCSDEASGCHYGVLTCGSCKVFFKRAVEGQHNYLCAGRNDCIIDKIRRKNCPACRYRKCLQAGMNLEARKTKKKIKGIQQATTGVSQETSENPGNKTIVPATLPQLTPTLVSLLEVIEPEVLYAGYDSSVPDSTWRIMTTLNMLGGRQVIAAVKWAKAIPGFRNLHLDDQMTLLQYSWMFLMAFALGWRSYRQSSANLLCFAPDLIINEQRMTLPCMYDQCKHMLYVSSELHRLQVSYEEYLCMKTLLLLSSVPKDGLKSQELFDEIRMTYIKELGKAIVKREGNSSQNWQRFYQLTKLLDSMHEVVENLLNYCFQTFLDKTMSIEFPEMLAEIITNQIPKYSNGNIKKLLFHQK

[5] = molecular target: T2, estrogen receptor (Homo sapiens, UniProt P03372); details: cited from earlier work
T2 sequence (P03372 1-595): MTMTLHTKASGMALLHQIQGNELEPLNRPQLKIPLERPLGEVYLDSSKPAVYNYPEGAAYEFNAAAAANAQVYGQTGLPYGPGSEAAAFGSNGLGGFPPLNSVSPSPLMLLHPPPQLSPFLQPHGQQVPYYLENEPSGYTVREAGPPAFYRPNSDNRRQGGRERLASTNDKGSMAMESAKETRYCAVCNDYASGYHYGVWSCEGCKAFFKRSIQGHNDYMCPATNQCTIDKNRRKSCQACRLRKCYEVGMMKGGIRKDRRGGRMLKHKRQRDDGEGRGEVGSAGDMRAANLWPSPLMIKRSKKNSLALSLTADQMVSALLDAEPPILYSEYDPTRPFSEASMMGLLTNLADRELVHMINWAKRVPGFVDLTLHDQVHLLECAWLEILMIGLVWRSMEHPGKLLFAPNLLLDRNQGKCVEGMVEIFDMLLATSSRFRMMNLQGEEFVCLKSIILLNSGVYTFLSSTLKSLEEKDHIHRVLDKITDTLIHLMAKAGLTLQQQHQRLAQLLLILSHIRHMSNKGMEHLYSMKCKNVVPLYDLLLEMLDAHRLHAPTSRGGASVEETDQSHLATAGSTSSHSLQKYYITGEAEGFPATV

[6] = system: MMP expression (MMP-1, MMP-3) in cultured stromal cells; details: cited from earlier work
[7] = system: estrogenic activity in the uterine endometrium; details: in vivo; cited from earlier work
[8] = species not stated; cited from earlier work

C[C@H](O)C(=O)[C@@]1(C)CC[C@H]2[C@@H]3CCC4=CC(=O)CCC4=C3CC[C@@]21C [TMG, trimegestone]
masculinizing or feminizing effects on the fetuses ([1]; fetuses of treated rats, treatment from day 13 of pregnancy): lacks masculinization or feminization effects; also recorded: no masculinizing or feminizing effects
ratio of male to female pups versus vehicle control ([1]; pregnant rats treated from day 13 of gestation, N=9): no significant difference; also recorded: non-significant differences
guinea pigs delivered (preterm) / treated, substance alone ([2]; TMG 4 mg/day s.c. days 44-47, PGE2 3 mg/day days 46, 47): 1/4
guinea pigs delivered (preterm) / treated, TMG plus PGE2 ([2]; TMG 4 mg/day s.c. days 44-47 and PGE2 3 mg/day days 46-47): None and 2/6
affinity to the mineralocorticoid receptor [3]: low affinity
relative binding affinity (RBA) for TMG-mineralocorticoid receptors (MR) [3]: 42
affinity to the glucocorticoid receptor [4]: low affinity
affinity for the estrogen receptor [5]: no measurable affinity
effect on MMP expression compared to P4 [6]: differential effect on MMP expression; also recorded: tighter control of MMP expression
antagonism of estrogenic activity in the uterine endometrium versus reference progestins [7]: highest level of estrogenic activity antagonism; also recorded: most potent antagonist of estrogenic activity
half-life [8]: 17 h
